Experimental data published in US11254958B1, “Metabolic engineering of E coli with thio-phosphate” (priority 2018, dated 2022).

Assays:
Type in all cases: cell-based
E coli K12 bacteria [1] = assay: Microarray analysis (Affymetrix E. coli Genome 2.0)
Description: (§1) E coli K12 bacteria were grown in high citrate minimal media with 5.4 g/L of thiophosphate or 2.4 g/L of Na2HPO4 for up to 12 hrs. The use of high citrate media was chosen to help lower the total amount of thiophosphate needed for growth when compared to regular M9 media (1). The media is prepared as follows: thiophosphate, 5.4 g/L; KCL 1.5 g/L; (NH4)2SO4, 2 g/L; sodium citrate 2H2O, 10 g/L. Adjust the pH to 7.5 and sterile filter the solution. Then add the following: MgSO4-7H2O, 0.2 g/L (sterilized separately as a conc. solution); glucose, 2 g/L sterilized separately by filtration). Glucose can also be sterilized by autoclaving separately. CaCl2 (11 mg/L) is also be added as needed.
Both Microarray and RNA seq analysis was performed. Total RNA was used for both studies. For microarray studies, raw Affymetrix CEL files (E. coli Genome 2.0) were normalized to produce probeset-level expression values for all probesets with Expression Console (version 1.4.1.46), using the Robust Multiarray Average (RMA) and Detection Above BackGround (DABG) (Irizarry R. A et al. 2003, Biostatistics 4(2): 249-64. doi:10.1093/biostatistics/4.2.249). The analysis was limited to 10,112 E. coli probesets interrogated by the array. Fold changes were computed using the R environment for statistical computing (version 2.15.1) by Boston University Microarray and Sequencing (CTSA grant #1UL1TR001430).

[2] = test system: Bacillus megaterium strain ATCC 15117; assay: AICA production/secretion in fermentation with thio-phosphate
Description: Bacillus megaterium was grown using a modified minimal media. In particular, the media contained: glucose, 60 g/L; KCL 1 g/L; MgSO4 0.4 g/L; peptone, 2 g/L; adenine, 0.25 g/L; NH4CI 8 g/L, urea, 3 g/L, calcium chloride, 0.5 g/L; as well as ferrous sulfate and manganese sulfate at 0.005 g/L. Thio-phosphate was added at levels between 2-6 g/L. For controls NaH2PO4 was add at 1 g/L.
Bacillus megaterium strain ATCC 15117 (U.S. Pat. No. 3,238,110 & 3,748,232) was used to examine the increased production of AICA using thio-phosphate. Cells were cultured at 26-30° C. for 4 days with 4 g/L of thio-phosphate or normal phosphate (1 g/L). […] The cells were pelleted, and the supernatant was acidified to pH 2 to help remove unwanted amino acids. The samples were then diluted with one volume of water and bound to activated charcoal with shaking for 2 hrs. (2 grams/20 ml) at room temp. The charcoal was collected on a filter with filtration and washed with 0.01 N HCl. AICA was then eluted with a solution of ethanol/ammonium hydroxide/water at a 1:1:2 ratio using a volume equivalent to the original supernatant. The samples were then separated and analyzed on Whatman chromatography paper using a solvent mixture of 50% butanol, 15% ethanol, and 35% water. The results indicated a ˜2× fold increase AICA per volume of cells.
Histidine and tryptophan were added to fermentation reactions to enhance AICA yield by blocking the endogenous synthesis of these amino acids. […] Fermentation reactions were typically initiated with 1.5 ml of overnight growth in nutrient broth which was then diluted into 50 ml of the reaction media. […] Despite the high activity, the growth of these cells was inhibited, almost in parallel with the amount of AICA secreted.

E coli K12 bacteria [3] = assay: Agilent analyzer profile of total RNA from control and thiophosphate treated cultures
Description: as §1
Total RNA was isolated using Bioline's ISOLATE II RNA mini kit. […] The rRNA ratio (23s/16s) was at least 1.6. Note small RNAs like SS RNA were not retained under the conditions used. For rRNA depleted preparations, Ribominus (Invitrogen) was then used to deplete 23S and 16S rRNA. The ribosomal depleted RNA was then concentrated with the kit's concentration module prior to gel analysis.
To further examine this idea, an Agilent analyzer was used to analyze the profiles of total RNA from control cultures and thiophosphate treated cultures (FIG. 1). It was evident that in E. coli, there was an increase in the non-ribosomal fraction, particularly between the […] and 23S ribosomal RNAs, which was even more evident in ribosomal RNA depleted samples (FIG. 1). Quantitative analysis indicated the fraction of 16S and 23S rRNA in the profile of total RNA was depleted in TP cultures relative to controls. […] This corresponds to a reduction of 8.8%. To estimate the fold increase in mRNA that could account for such a change, one needs to know the % of total RNA that is mRNA.

[4] = test system: E. coli K12 and JM109 strains; assay: Morphological changes by bright field microscopy; details: K12, semi-synthetic media
[5] = microarray (value outside parentheses)
[6] = 4 g/L thio-phosphate vs normal phosphate
[7] = twice as many starter cells, 50 mg each of his and trp

Question: What does the source list for OP(O)(O)=S [thio-phosphate]?
Answer: average fold change of 19 genes with unstable mRNAs (E coli K12 bacteria [1]; half-lives less than or equal to 1.4 minutes): 1.0+/−2.8; Dxs transcript fold enhancement (E coli K12 bacteria [1]; microarray): 2.5 × fold; FabB transcript elevation (E coli K12 bacteria [1]; microarray): 3 ×; TesA transcript elevation (E coli K12 bacteria [1]; microarray): 4 ×; Udp transcript fold reduction (E coli K12 bacteria [1]; microarray): 3.2 × fold; Upp transcript increase (E coli K12 bacteria [1]; microarray): 2 ×; accA transcript elevation (E coli K12 bacteria [1]; microarray): 1.3; accC transcript elevation (E coli K12 bacteria [1]; microarray): 3.2; accD transcript elevation (E coli K12 bacteria [1]; microarray): 1.4; adk transcript fold elevation (E coli K12 bacteria [1]; microarray): 1.5 × fold; dusB transcript fold elevation (E coli K12 bacteria [1]; microarray): ≥ 3 × fold; infB transcript fold elevation (E coli K12 bacteria [1]; microarray): 3.1 × fold; ispD transcript fold enhancement (E coli K12 bacteria [1]; microarray): 2.5 × fold; other IPP/DMAPP synthesis gene transcripts (the others) fold enhancement (E coli K12 bacteria [1]; microarray): ~1.3 × fold; prsA transcript elevation (E coli K12 bacteria [1]; microarray): < 2 ×; pyrF transcript fold elevation (E coli K12 bacteria [1]; microarray): 3.7 × fold; rlmH transcript fold elevation (E coli K12 bacteria [1]; microarray): at least 3.4 × fold; rpoS transcript fold elevation (E coli K12 bacteria [1]; microarray): 3 × fold; tadA transcript fold elevation (E coli K12 bacteria [1]; microarray): ≥ 3 × fold; trmA transcript fold elevation (E coli K12 bacteria [1]; microarray): ≥ 3 × fold; ycih transcript fold elevation (E coli K12 bacteria [1]; microarray): 3.3 × fold; yqgf transcript fold elevation (E coli K12 bacteria [1]; microarray): at least 3.4 × fold; dacA transcript elevation (E coli K12 bacteria [1]; [5]): 3.6 × fold; ftsI transcript elevation (E coli K12 bacteria [1]; [5]): 1.6 ×; idtB transcript elevation (E coli K12 bacteria [1]; [5]): 2 ×; idtC transcript elevation (E coli K12 bacteria [1]; [5]): 5.2 ×; FabA, FabG, FabZ, FabI, FabF gene transcripts (E coli K12 bacteria [1]; microarray and RNA seq): elevated; tRNA synthetases average increase (E coli K12 bacteria [1]; microarray, 20 genes): 1.24 × fold; CspA transcript fold increase (E coli K12 bacteria [1]; microarray, vs control): 3.1 × fold; nusA transcript fold increase (E coli K12 bacteria [1]; microarray, vs control): 2.6 × fold; pgsA mRNA fold enhancement (E coli K12 bacteria [1]; platform not given): 1.9 × fold; plsB mRNA fold enhancement (E coli K12 bacteria [1]; platform not given): 1.9 × fold; pssA mRNA fold enhancement (E coli K12 bacteria [1]; platform not given): 1.9 × fold; average fold change for 10,110 transcripts (E coli K12 bacteria [1]; standard deviation 1.4): −0.1; average fold change of 23 mRNAs with half-lives greater than 10 minutes (E coli K12 bacteria [1]; standard deviation 2.44): 1.2; effect on cells by day 4 ([2]; 100 mg of histidine and tryptophan each per liter): cell lysis; growth recovery by day 4 ([2]; 4 g/L thio-phosphate): 60-100 % of controls; growth after 24 hrs [2, 6]: the same; growth recovered by the third day [2, 6]: normal or 60% of normal levels; fold increase AICA per volume of cells ([2]; 4 g/L thio-phosphate vs normal phosphate (1 g/L), 26-30° C., 4 days): ~2 × fold; AICA levels increased ([2]; per cell mass basis compared to normal phosphate containing culture media): 2 ×; cell specific yield of AICA [2, 7]: 5-6 × fold; growth of cells [2, 7]: inhibited; midpoint of the non-ribosomal RNA peak (E coli K12 bacteria [3]): ~2,000 NT; reduction of 16S and 23S rRNA fraction relative to controls (E coli K12 bacteria [3]): 8.8%; fold increase in mRNA or non-ribosomal RNA relative to ribosomal RNA (E coli K12 bacteria [3]; assuming mRNA is normally 2% of the total): 5.5 × fold; 16S and 23S rRNA as fraction of total RNA (E coli K12 bacteria [3]; average of two replicates): 42.5%; time by which filaments were detected [4]: ≤ 8 h; time by which paired bacteria could be seen [4]: ≤ 2 h
